The target of the experiment is LRRK2 (leucine-rich repeat kinase 2) (Homo sapiens (Human), UniProt Q5S007). Briefly: Inhibitory effect on LRRK2 in vitro (LANCE kinase assay). The class given is biochemical. As for the experimental part: The inhibitory effect of Compounds 1 to 62 on LRRK2 (leucine-rich repeat kinase 2) in vitro was measured. In the analysis of the results, IC50 values were calculated for a quantitative comparison of the in vitro activity.
After the compound was dissolved in 100% DMSO at 10 mM, it was serially diluted to the range of 1 μM to 10 μM using biochemical LRRK2 assay buffer (50 mM HEPES (4-(2-hydroxyethyl)-1-piperazineethanesulfonic acid) pH 7.5, 10 mM MgCl2, 1 mM EGTA (1,2-bis(o-aminophenoxy)ethane-N,N,N′,N′-tetraacetic acid), 2 mM DTT (dithiothreitol), and 0.01% TWEEN-20 (Aldrich)). Purified LRRK2 (CARNA BIOSCIENCES) was added to a black U-bottom 96-well microtiter plate containing 6 μl of the serially diluted compound, followed by incubation at room temperature for 30 minutes. For the kinase reaction, ATP and a substrate solution specific urea-polypeptide (ULIGHT™-poly TK, PerkinElimer) were added. The reaction was carried out at room temperature for 1 hour, and it was detected with an detection solution (brand name: LANCE™) containing EDTA. A LANCE detection solution containing europium-labeled antibody ([…] PT66) was added, followed by incubation at room temperature for 50 minutes, to terminate the kinase experiment. The phosphorylated substrate was detected by 665 nm emission measurement. IC50 values were calculated by a non-linear regression analysis using a Prism program (PRISM™ software) with reference to the absence of a kinase inhibitor.
As a comparative assay, a compound LRR2-IN-1, that known to be a reference compound for LRRK2 inhibitor, have also tested an inhibitory activity.
On the technique in general: Time-resolved FRET reads energy transfer from a long-lived donor to a nearby acceptor.

[1] abbreviates: Table 1, class symbols, read-out: LRRK2 inhibition rate (IC50).
Where [2] appears, read: purified LRRK2, Table 6, read-out: IC50.

Like-named read-outs stand apart in the source and are kept apart here.

LRRK2 (leucine-rich repeat kinase 2), sequence (Q5S007 whole entry): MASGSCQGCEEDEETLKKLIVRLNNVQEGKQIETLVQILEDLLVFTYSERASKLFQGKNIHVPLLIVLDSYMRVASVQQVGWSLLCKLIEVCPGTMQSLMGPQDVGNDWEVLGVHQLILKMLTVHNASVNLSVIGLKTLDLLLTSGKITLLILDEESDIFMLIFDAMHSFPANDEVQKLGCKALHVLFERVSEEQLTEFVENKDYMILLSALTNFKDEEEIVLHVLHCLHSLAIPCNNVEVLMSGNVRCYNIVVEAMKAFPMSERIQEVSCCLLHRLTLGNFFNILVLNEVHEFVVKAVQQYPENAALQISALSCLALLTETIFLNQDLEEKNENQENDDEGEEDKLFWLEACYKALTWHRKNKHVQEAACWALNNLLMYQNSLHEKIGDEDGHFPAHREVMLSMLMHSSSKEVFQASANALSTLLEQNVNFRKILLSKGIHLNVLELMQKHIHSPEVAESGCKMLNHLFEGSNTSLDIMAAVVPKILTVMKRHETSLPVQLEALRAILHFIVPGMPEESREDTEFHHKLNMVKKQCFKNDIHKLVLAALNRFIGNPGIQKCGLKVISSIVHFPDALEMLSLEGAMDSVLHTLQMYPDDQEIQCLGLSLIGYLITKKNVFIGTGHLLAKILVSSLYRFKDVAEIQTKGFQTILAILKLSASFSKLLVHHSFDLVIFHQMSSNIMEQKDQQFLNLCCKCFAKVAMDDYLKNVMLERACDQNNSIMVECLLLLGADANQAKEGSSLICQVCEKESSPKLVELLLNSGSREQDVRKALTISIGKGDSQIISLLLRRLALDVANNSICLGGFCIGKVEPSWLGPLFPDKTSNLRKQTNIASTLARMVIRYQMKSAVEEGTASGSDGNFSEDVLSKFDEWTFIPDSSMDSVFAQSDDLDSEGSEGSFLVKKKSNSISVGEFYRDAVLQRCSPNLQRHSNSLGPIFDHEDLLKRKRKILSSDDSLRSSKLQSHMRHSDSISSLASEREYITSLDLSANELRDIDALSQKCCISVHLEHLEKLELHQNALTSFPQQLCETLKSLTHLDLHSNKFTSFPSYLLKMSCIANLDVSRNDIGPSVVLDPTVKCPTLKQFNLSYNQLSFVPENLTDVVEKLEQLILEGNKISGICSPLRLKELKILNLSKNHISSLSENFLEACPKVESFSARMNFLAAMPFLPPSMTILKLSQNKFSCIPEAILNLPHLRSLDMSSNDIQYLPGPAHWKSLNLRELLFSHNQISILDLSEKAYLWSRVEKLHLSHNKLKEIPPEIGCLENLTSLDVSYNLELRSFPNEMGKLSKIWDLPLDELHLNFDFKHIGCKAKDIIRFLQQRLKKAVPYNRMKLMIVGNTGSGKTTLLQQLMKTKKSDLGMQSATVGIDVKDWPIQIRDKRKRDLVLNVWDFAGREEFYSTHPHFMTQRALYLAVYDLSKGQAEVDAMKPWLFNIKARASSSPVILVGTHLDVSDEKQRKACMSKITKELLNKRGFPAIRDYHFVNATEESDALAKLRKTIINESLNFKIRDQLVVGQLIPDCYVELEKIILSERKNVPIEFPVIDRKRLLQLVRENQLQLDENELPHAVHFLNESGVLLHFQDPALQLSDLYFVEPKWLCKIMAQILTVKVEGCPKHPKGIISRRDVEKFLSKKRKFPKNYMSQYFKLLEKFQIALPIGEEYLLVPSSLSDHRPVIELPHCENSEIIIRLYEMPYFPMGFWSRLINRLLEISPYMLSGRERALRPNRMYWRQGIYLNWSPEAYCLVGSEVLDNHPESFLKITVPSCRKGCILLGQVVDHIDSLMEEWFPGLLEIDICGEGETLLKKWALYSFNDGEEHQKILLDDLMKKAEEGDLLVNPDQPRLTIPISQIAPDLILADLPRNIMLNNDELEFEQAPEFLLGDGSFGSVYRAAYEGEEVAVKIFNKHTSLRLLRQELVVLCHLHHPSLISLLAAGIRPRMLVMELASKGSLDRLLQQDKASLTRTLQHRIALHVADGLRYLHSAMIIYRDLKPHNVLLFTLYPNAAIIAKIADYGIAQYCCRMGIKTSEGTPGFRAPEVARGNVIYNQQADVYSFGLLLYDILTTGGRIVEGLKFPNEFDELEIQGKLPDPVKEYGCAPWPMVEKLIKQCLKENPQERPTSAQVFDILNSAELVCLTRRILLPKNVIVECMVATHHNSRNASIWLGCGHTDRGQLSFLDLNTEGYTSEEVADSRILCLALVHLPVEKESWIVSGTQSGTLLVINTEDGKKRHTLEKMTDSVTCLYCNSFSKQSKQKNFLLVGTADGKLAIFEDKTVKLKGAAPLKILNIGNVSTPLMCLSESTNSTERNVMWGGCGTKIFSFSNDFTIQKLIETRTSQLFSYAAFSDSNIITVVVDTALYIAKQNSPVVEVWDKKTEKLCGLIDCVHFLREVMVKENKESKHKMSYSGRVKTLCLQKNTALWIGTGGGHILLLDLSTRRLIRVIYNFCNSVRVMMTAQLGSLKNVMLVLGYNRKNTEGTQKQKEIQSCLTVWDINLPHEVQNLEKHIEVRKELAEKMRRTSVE

Regarding `Cn1cc(Cl)c2cnc(Nc3cnn(C4CCN(C5COC5)CC4)c3Cl)nc21` [Compound 27, 5-chloro-N-(5-chloro-1-(1-(oxetan-3-yl)piperidin-4-yl)-1H-pyrazol-4-yl)-7-methyl-7H-pyrrolo[2,3-d]pyrimidin-2-amine], under setting [1], the half-inhibitory concentration (IC50) – broadly, the concentration that inhibits the measured activity by half – was in the range of 10 to 100 nM. Take `CCn1cc(Cl)c2cnc(Nc3cnn(C4CCN(C5COC5)CC4)c3Cl)nc21` [Compound 28, 5-chloro-N-(5-chloro-1-(1-(oxetan-3-yl)piperidin-4-yl)-1H-pyrazol-4-yl)-7-ethyl-7H-pyrrolo[2,3-d]pyrimidin-2-amine]: the IC50 reads like this: under setting [1], under 10 nM; under setting [2], 6.5 nM. On to `Clc1cn(C2CC2)c2nc(Nc3cnn(C4CCN(C5COC5)CC4)c3Cl)ncc12` [Compound 29, 5-chloro-N-(5-chloro-1-(1-(oxetan-3-yl)piperidin-4-yl)-1H-pyrazol-4-yl)-7-cyclopropyl-7H-pyrrolo[2,3-d]pyrimidin-2-amine], for which the IC50 under setting [1] lay in the range of 10 to 100 nM. Turning to `CS(=O)(=O)N1CCC(n2cc(Nc3ncc4c(Cl)cn(C5CC5)c4n3)c(Cl)n2)CC1` [Compound 30, 5-chloro-N-(3-chloro-1-(1-(methylsulfonyl)piperidin-4-yl)-1H-pyrazol-4-yl)-7-cyclopropyl-7H-pyrrolo[2,3-d]pyrimidin-2-amine], the IC50 by setting is: under setting [1], under 10 nM; under setting [2], 2.02 nM. Regarding `CCn1cc(Cl)c2cnc(Nc3cn(C4CCN(C(=O)N5CCOCC5)CC4)nc3Cl)nc21` [Compound 31, (4-(3-chloro-4-(5-chloro-7-ethyl-7H-pyrrolo[2,3-d]pyrimidin-2-ylamino)-1H-pyrazol-1-yl)piperidin-1-yl)(morpholino)methanone], the half-inhibitory concentration (IC50) under setting [1] is under 10 nM and the IC50 under setting [2] came out at 4.66 nM.

With `CCn1cc(Cl)c2cnc(Nc3cn(C4CCN(C(=O)N5CCN(C)CC5)CC4)nc3Cl)nc21` [Compound 32, (4-(3-chloro-4-(5-chloro-7-ethyl-7H-pyrrolo[2,3-d]pyrimidin-2-ylamino)-1H-pyrazol-1-yl)piperidin-1-yl)(4-methylpiperazin-1-yl)methanone], the IC50 under setting [1] is under 10 nM and the half-inhibitory concentration (IC50) under setting [2] amounted to 2.5 nM.

On to `CCn1cc(Cl)c2cnc(Nc3cn(C4CCN(C(=O)C(C)(C)C)CC4)nc3Cl)nc21` [Compound 33, 1-(4-(3-chloro-4-(5-chloro-7-ethyl-7H-pyrrolo[2,3-d]pyrimidin-2-ylamino)-1H-pyrazol-1-yl)piperidin-1-yl)-2,2-dimethylpropane-1-one], for which the half-inhibitory concentration (IC50) under setting [1] is under 10 nM and the IC50 under setting [2] is 6.07 nM.

Turning to `CCn1cc(Cl)c2cnc(Nc3c(C)nn(C4CCN(S(C)(=O)=O)CC4)c3C)nc21` [Compound 34, 5-chloro-N-(3,5-dimethyl-1-(1-(methylsulfonyl)piperidin-4-yl)-1H-pyrazol-4-yl)-7-ethyl-7H-pyrrolo[2,3-d]pyrimidin-2-amine], the 50% inhibitory concentration (IC50) under setting [1] is 100 to 1000 nM. Consider `CCn1cc(Cl)c2cnc(Nc3cn(C4CCN(S(=O)(=O)C5CC5)CC4)nc3Cl)nc21` [Compound 35, 5-chloro-N-(3-chloro-1-(1-(cyclopropylsulfonyl)piperidin-4-yl)-1H-pyrazol-4-yl)-7-ethyl-7H-pyrrolo[2,3-d]pyrimidin-2-amine], for which the IC50 by setting is: under setting [1], under 10 nM; under setting [2], 6.66 nM.

Turning to `CCn1cc(Cl)c2cnc(Nc3cn([C@@H]4CCN(S(C)(=O)=O)C4)nc3Cl)nc21` [Compound 36, (R)-5-chloro-N-(3-chloro-1-(1-(methylsulfonyl)pyrrolidin-3-yl)-1H-pyrazol-4-yl)-7-ethyl-7H-pyrrolo[2,3-d]pyrimidin-2-amine], the 50% inhibitory concentration (IC50) under setting [1] was 10 to 100 nM. Still for that read-out and setting: the same measure for `CCn1cc(Cl)c2cnc(Nc3cn([C@H]4CCN(S(C)(=O)=O)C4)nc3Cl)nc21` [Compound 37, (S)-5-chloro-N-(3-chloro-1-(1-(methylsulfonyl)pyrrolidin-3-yl)-1H-pyrazol-4-yl)-7-ethyl-7H-pyrrolo[2,3-d]pyrimidin-2-amine]: 10 to 100 nM; for `CCn1cc(Cl)c2cnc(Nc3cn([C@@H]4CCN(C(=O)C5CCCC5)C4)nc3Cl)nc21` [Compound 38, (R)-(3-(3-chloro-4-(5-chloro-7-ethyl-7H-pyrrolo[2,3-d]pyrimidin-2-ylamino)-1H-pyrazol-1-yl)pyrrolidin-1-yl)(cyclopentyl)methanone]: 10 to 100 nM; for `CCn1cc(Cl)c2cnc(Nc3cn([C@H]4CCN(C(=O)C5CCCC5)C4)nc3Cl)nc21` [Compound 39, (S)-(3-(3-chloro-4-(5-chloro-7-ethyl-7H-pyrrolo[2,3-d]pyrimidin-2-ylamino)-1H-pyrazol-1-yl)pyrrolidin-1-yl)(cyclopentyl)methanone]: 10 to 100 nM. As to `CCn1cc(Cl)c2cnc(Nc3cn(C4CN(S(C)(=O)=O)C4)nc3Cl)nc21` [Compound 40, 5-chloro-N-(3-chloro-1-(1-(methylsulfonyl)azetidin-3-yl)-1H-pyrazol-4-yl)-7-ethyl-7H-pyrrolo[2,3-d]pyrimidin-2-amine], the 50% inhibitory concentration (IC50) under setting [1] was in the range of 10 to 100 nM. With `CCn1cc(Cl)c2cnc(Nc3cn(C4CN(C(=O)C5CC5)C4)nc3Cl)nc21` [Compound 41, (3-(3-chloro-4-(5-chloro-7-ethyl-7H-pyrrolo[2,3-d]pyrimidin-2-ylamino)-1H-pyrazol-1-yl)azetidin-1-yl)(cyclopropyl)methanone], the IC50 under setting [1] was 10 to 100 nM. On the same count and under the same terms, the same measure for `CCn1cc(Cl)c2cnc(Nc3cn(C4CCCN(S(C)(=O)=O)CC4)nc3Cl)nc21` (stereo not drawn) [Compound 42, 5-chloro-N-(3-chloro-1-(1-(methylsulfonyl)azepan-4-yl)-1H-pyrazol-4-yl)-7-ethyl-7H-pyrrolo[2,3-d]pyrimidin-2-amine]: under 10 nM. Still for that read-out and setting: the same measure for `CCn1cc(Cl)c2cnc(Nc3cn(C4CCCN(C(=O)C5CC5)CC4)nc3Cl)nc21` (stereo not drawn) [Compound 43, (4-(3-chloro-4-(5-chloro-7-ethyl-7H-pyrrolo[2,3-d]pyrimidin-2-ylamino)-1H-pyrazol-1-yl)azepan-1-yl)(cyclopropyl)methanone]: under 10 nM; for `CCn1nc(Cl)c2cnc(Nc3cn(-c4ccc(F)cc4)nc3Cl)nc21` [Compound 44, 3-chloro-N-(3-chloro-1-(4-fluorophenyl)-1H-pyrazol-4-yl)-1-ethyl-1H-pyrazolo[3,4-d]pyrimidin-6-amine]: 10 to 100 nM; for `CCn1nc(Cl)c2cnc(Nc3cnn(C4CCN(C5COC5)CC4)c3Cl)nc21` [Compound 45, 3-chloro-N-(5-chloro-1-(1-(oxetan-3-yl)piperidin-4-yl)-1H-pyrazol-4-yl)-1-ethyl-1H-pyrazolo[3,4-d]pyrimidin-6-amine]: 10 to 100 nM. In the case of `CS(=O)(=O)N1CCC(n2cc(Nc3ncc4c(Cl)nn(C5CC5)c4n3)c(Cl)n2)CC1` [Compound 46, 3-chloro-N-(3-chloro-1-(1-(methylsulfonyl)piperidin-4-yl)-1H-pyrazol-4-yl)-1-cyclopropyl-1H-pyrazolo[3,4-d]pyrimidin-6-amine], the half-maximal inhibitory concentration (IC50) is, setting by setting: under setting [1], under 10 nM; under setting [2], 7.91 nM. With `CCn1nc(Cl)c2cnc(Nc3cn(C4CCN(S(=O)(=O)C5CC5)CC4)nc3Cl)nc21` [Compound 47, 3-chloro-N-(3-chloro-1-(1-(cyclopropylsulfonyl)piperidin-4-yl)-1H-pyrazol-4-yl)-1-ethyl-1H-pyrazolo[3,4-d]pyrimidin-6-amine], the IC50 under setting [1] is under 10 nM and the IC50 under setting [2] turned out to be 6.48 nM. Consider `CCn1nc(Cl)c2cnc(Nc3cn(C4CCN(C(=O)C(F)(F)F)CC4)nc3Cl)nc21` [Compound 48, 1-(4-(3-chloro-4-(3-chloro-1-ethyl-1H-pyrazolo[3,4-d]pyrimidin-6-ylamino)-1H-pyrazol-1-yl)piperidin-1-yl)-2,2,2-trifluoroethanone], for which the IC50 under setting [1] fell in the range of 10 to 100 nM. Consider `CS(=O)(=O)N1CCC(n2cc(Nc3ncc4c(Cl)nn(CC(F)(F)F)c4n3)c(Cl)n2)CC1` [Compound 49, 3-chloro-N-(3-chloro-1-(1-(methylsulfonyl)piperidin-4-yl)-1H-pyrazol-4-yl)-1-(2,2,2-trifluoroethyl)-1H-pyrazolo[3,4-d]pyrimidin-6-amine], for which the IC50 under setting [1] was in the range of 10 to 100 nM. On the same count and under the same terms, the same measure for `FC(F)(F)Cn1nc(Cl)c2cnc(Nc3cnn(C4CCN(C5COC5)CC4)c3Cl)nc21` [Compound 50, 3-chloro-N-(5-chloro-1-(1-(oxetan-3-yl)piperidin-4-yl)-1H-pyrazol-4-yl)-1-(2,2,2-trifluoroethyl)-1H-pyrazolo[3,4-d]pyrimidin-6-amine]: 10 to 100 nM. For `CCn1nc(Cl)c2cnc(Nc3cn(C4CCCN(S(C)(=O)=O)CC4)nc3Cl)nc21` (stereo not drawn) [Compound 51, 3-chloro-N-(3-chloro-1-(1-(methylsulfonyl)azepan-4-yl)-1H-pyrazol-4-yl)-1-ethyl-1H-pyrazolo[3,4-d]pyrimidin-6-amine], the IC50 is, setting by setting: under setting [1], under 10 nM; under setting [2], 4.75 nM.

Regarding `CCn1nc(Cl)c2cnc(Nc3cn(C4CCCN(C(=O)C5CC5)CC4)nc3Cl)nc21` (stereo not drawn) [Compound 52, (4-(3-chloro-4-(3-chloro-1-ethyl-1H-pyrazolo[3,4-d]pyrimidin-6-ylamino)-1H-pyrazol-1-yl)azepan-1-yl)(cyclopropyl)methanone], the concentration for half-maximal inhibition (IC50) is under 10 nM under setting [1] and 5.6 nM under setting [2].
